# pIC50: −log10 of the molar value.
# Key:
# [1] = test system: MCF-7 cells; assay: In vitro cell proliferation assay, Assay 1 (CyQUANT cell density); format: cell-based; details: Homo sapiens, MCF7, 72 h, MCF-7, 3 days with compound, read-out: concentration giving 50% inhibition of cell proliferation
# Text: (b) In Vitro Cell Proliferation Assay
# These and other assays can be used to determine the ability of a test compound to inhibit the growth of adherent mammalian cell lines, for example the human tumour cell line MCF7.
# Assay 1: MCF-7 (ATCC HTB-22) or other adherent cells were typically seeded at 1×10^3 cells per well (excluding the peripheral wells) in DMEM (Sigma Aldrich) without phenol red, plus 10% foetal calf serum, 1% L-glutamine and 1% penicillin/streptomycin in 96 well tissue culture treated clear plates (Costar). The following day (day 1), the media was removed from a no treatment control plate and the plate stored at −80° C. […] The fluorescence of the wells was then measured using a fluorescence microplate reader (gain 70, 2 reads per well, 1 cycle with excitation 485 nm and emission 530 nm using a CytoFluor plate reader (PerSeptive Biosystems Inc.)). […]
# [2] = test system: MCF7 cells; assay: In vitro cell cycle analysis assay (FACS, propidium iodide); format: cell-based, human; details: MCF7, 24.8 μM, 24 hours
# Protocol: (c) In Vitro Cell Cycle Analysis Assay
# This assay determines the ability of a test compound to arrest cells in specific phases of the cell cycle. Many different mammalian cell lines could be used in this assay and MCF7 cells are included here as an example. MCF-7 cells were seeded at 3×10^5 cells per T25 flask (Costar) in 5 ml DMEM (no phenol red 10% FCS, 1% L-glutamine 1% penicillin/streptomycin). Flasks were then incubated overnight in a humidified 37° C. incubator with 5% CO2. The following day 1 ml of DMEM (no phenol red 10% FCS, 1% L-glutamine 1% penicillin/streptomycin) carrying the appropriate concentration of test compound solubilised in DMSO was added to the flask. A no compound control treatments was also included (0.5% DMSO). The cells were then incubated for a defined time (usually 24 hours) with compound. After this time the media was aspirated from the cells and they were washed with 5 ml of prewarmed (37° C.) sterile PBSA, then detached from the flask by brief incubation with trypsin and followed by resuspension in 10 ml of 1% Bovine Serum Albumin (BSA, Sigma-Aldrich Co.) in sterile PBSA. The samples were then centrifuged at 2200 rpm for 10 min. The supernatant was aspirated and the cell pellet was resuspended in 200%1 of 0.1% (w/v) Tris sodium citrate, 0.0564% (w/v) NaCl, 0.03% (v/v) Nonidet NP40, [pH 7.6]. Propridium Iodide (Sigma Aldrich Co.) was added to 40 μg/ml and RNAase A (Sigma Aldrich Co.) to 100 μg/ml. The cells were then incubated at 37° C. for 30 minutes. The samples were centrifuged at 2200 rpm for 10 min, the supernatant removed and the remaining pellet (nuclei) resuspended in 200%1 of sterile PBSA. […] The samples were then transferred to LPS tubes and DNA content per cell analysed by Fluorescence activated cell sorting (FACS) using a FACScan flow cytometer (Becton Dickinson). Typically 25000 events were counted and recorded using […]. Cell cycle distribution of the population was calculated using Modfit software (Verity Software) and expressed as percentage of cells in G0/G1, S and G2/M phases of the cell cycle.
# [3] = target: T1, aurora2 kinase (Homo sapiens, UniProt O14965); assay: In vitro aurora2 kinase inhibition test; format: biochemical
# T1 construct: 6 His with spacer region and rTEV protease cleavage site (pFastBac HTc) (N); made in house; host or cells: Spodoptera frugiperda Sf21 insect cells (baculovirus, pFastBac HTc)
# T1 sequence (O14965 1-403): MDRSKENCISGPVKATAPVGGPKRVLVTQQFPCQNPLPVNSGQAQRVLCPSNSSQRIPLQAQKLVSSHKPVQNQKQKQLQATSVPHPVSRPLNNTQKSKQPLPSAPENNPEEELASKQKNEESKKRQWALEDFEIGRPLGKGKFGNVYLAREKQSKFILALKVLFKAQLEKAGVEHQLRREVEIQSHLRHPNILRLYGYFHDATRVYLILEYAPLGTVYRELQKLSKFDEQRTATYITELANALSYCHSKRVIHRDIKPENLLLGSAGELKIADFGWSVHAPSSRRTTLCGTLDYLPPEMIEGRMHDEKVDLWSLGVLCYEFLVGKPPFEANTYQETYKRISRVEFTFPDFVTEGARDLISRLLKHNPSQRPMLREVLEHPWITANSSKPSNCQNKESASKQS
smiles,measurement,setting,value
COc1ccnc(COc2ccc(Nc3ncnc4cc(OC)c(OC)cc34)cc2C)c1 [Compound 43],pIC50,[1],4.91
same,% Cells in G1,[2],37.29%
same,% Cells in G2/M,[2],28.78%
same,% Cells in S,[2],33.93%
same,pIC50,[3],6.33

# — US7081461B1, “Quinazoline compounds and pharmaceutical compositions containing them” (AstraZeneca AB, priority 1999, dated 2006)
